{
  "source": "paper PMC10506422",
  "about": "(Biomedicine & pharmacotherapy = Biomedecine & …, 2022)",
  "biological_target": "T1, ABCG2 (Homo sapiens, UniProt Q9UNQ0)",
  "T1 sequence (Q9UNQ0 1-655)": "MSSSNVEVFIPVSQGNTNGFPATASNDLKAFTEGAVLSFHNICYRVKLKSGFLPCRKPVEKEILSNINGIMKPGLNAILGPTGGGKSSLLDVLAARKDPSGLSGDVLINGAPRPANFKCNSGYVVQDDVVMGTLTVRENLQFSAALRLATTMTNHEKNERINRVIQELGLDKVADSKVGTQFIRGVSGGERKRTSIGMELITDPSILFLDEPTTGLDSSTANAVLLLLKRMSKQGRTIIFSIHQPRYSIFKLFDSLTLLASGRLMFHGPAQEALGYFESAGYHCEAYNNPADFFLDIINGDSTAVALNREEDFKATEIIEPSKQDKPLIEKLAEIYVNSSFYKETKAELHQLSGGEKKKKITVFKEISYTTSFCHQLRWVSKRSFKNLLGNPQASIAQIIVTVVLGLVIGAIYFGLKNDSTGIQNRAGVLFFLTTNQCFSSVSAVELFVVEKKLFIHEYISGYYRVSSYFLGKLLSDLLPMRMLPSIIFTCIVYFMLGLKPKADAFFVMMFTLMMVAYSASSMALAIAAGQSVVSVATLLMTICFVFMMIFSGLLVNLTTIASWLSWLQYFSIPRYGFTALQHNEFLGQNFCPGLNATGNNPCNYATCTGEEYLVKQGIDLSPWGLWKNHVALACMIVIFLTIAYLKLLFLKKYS",
  "assay": "fluorescent substrate efflux/accumulation by flow cytometry",
  "assay_type": "cell-based",
  "data": [
    {"smiles": "C=Cc1c(C)c2cc3nc(c4c5[nH]c(cc6nc(cc1[nH]2)C(C)=C6CC)c(C)c5C(=O)[C@@H]4C(=O)OC)[C@@H](CCC(=O)O)[C@@H]3C", "note": "[pheophorbide A]", "values": [
      {"measurement": "fluorescent substrate efflux/accumulation by flow cytometry (1 μM PhA)", "result": "The intracellular accumulation of pheophorbide A (PhA), a known fluorescent substrate drug of ABCG2, was determined"}
    ]}
  ]
}
